Results reported in patent US20260265279A1, “RHO-ASSOCIATED PROTEIN KINASE INHIBITOR AND PREPARATION AND USE THEREOF” (Shanghai Zhimeng Biopharma, Inc, priority 2022, published 2026).

Assays:
ROCK1 = target: T1, ROCK1 (Homo sapiens, UniProt Q13464); assay: Kinase IC50 assay, HTRF kinEASE STK S2 kit, ROCK1; type: biochemical; conditions: ATP 1.5 μM, 2.5 ng/well enzyme, 120 min
T1 construct: purchased Invitrogen PV3691
Protocol: (§1) Kinase IC50 assay was performed using the kinase assay kit HTRF kinEASE STK S2 kit (Cat #62ST2PEC, Cisbio). Kinases ROCK1 (Cat #PV3691) and ROCK2 (Cat #PV3759) were purchased from Invitrogen.
(§2) The working solution required for the assay was prepared with the appropriate reagents as described in the kinase assay kit instructions:
(§3) 1 mL of 1× Kinase Buffer contains 200 μL 5× Enzyme buffer, 5 μL 1M MgCl2 (Cat.M8266, Sigma), 1 μL 1M DTT (Cat.D5545, Sigma), 794 μL ddH2O.
(§4) The specific concentrations of STK-biotin substrate and ATP are shown in Table A. STK-biotin substrate and ATP were diluted with 1× kinase buffer to 2.5 times of the reaction concentration.
(§5) Concentrations of ROCK1/ROCK2 are shown in Table A. 5×ROCK1/ROCK2 Kinase working solution was prepared with 1× Kinase Buffer.
(§6) See Table A for the concentrations of Streptavidin-XL665 and STK Antibody-Cryptate in the reaction. 2× Streptavidin-XL665 and STK Antibody-Cryptate Working Solutions were prepared 5 minutes prior to the end of the kinase reaction using Detection Buffer from the kit.
(§7) A 100 μM compound mother solution was prepared using 1× kinase buffer containing 2.5% DMSO, and the mother solution was diluted 4-fold stepwise with the above DMSO-containing kinase buffer to obtain nine different concentrations of the compound solutions to be tested. In addition to the test compound wells, positive control wells (containing all reagents except the compounds) and negative control wells (containing all reagents except the compounds and kinase) were set up. 4 μL of the test compound solution was added to all reaction wells except the control wells and 4 μL of 2.5% DMSO solution was added to the control wells. Then 4 μL of previously prepared substrate and ATP working solution were added to all wells and mix well. Then, 2 μL/well of 5×ROCK1/ROCK2 kinase working solution (containing 2.5 ng ROCK1/ROCK2 kinase) was added to all reaction wells except negative control wells, and the negative control wells were made up to volume with 2 μL of 1× kinase buffer. Mix well, seal with plastic film and incubate at room temperature for 2 hours. Start preparing the assay solution 5 minutes before the end of the kinase reaction. After the end of the kinase reaction, 10 μL of prepared Streptavidin-XL665 and STK Antibody-Cryptate working solution were added to all reaction wells, the plates were sealed and mixed well, and then incubated at room temperature for 1 hour. Finally, the fluorescence signal was detected by SpectraMax i3x Multi-Mode Reader (Molecular Devices) (excitation wavelength is 320 nm, emission wavelength is 665 nm and 615 nm).
(§8) The inhibition rate in each well was calculated from the fluorescence intensity values of each well:
(§9) ER Emission Ratio, Emission light ratio=fluorescence intensity at 665 nm/fluorescence intensity at 615 nm;
(§10) ERcompound, ER of test compound wells; ERvehicle, ER of solvent (positive) control wells, ERblank, ER of blank (negative) control wells.
(§11) The graphs were plotted using the software GraphPad Prism 6.0, while the half inhibitory concentration (IC50) of each compound to be tested was obtained by fitting with Prism 6.0.

ROCK2 = target: T2, ROCK2 (Homo sapiens, UniProt O75116); assay: Kinase IC50 assay, HTRF kinEASE STK S2 kit, ROCK2; type: biochemical; conditions: ATP 1 μM, 2.5 ng/well enzyme, 120 min
T2 construct: purchased Invitrogen PV3759
T2 sequence (O75116 5-554 limits assumed): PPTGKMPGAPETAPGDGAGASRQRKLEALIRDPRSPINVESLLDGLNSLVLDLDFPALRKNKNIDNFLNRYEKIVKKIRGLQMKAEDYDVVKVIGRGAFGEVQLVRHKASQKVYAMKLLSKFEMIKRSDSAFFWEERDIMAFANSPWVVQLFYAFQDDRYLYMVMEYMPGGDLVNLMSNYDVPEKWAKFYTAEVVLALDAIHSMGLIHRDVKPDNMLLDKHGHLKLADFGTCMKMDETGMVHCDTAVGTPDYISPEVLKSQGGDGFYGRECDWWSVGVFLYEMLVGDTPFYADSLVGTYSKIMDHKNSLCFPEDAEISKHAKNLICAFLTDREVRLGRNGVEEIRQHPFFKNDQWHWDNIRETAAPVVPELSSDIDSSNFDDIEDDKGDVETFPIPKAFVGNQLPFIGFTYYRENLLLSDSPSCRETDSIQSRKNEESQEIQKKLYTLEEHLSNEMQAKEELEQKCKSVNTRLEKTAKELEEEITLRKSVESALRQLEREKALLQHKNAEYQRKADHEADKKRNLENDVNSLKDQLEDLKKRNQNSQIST
Protocol: as §1, §2, §3, §4, §5, §6, §7, §8, §9, §10, §11

T1 sequence (Q13464 1-535 limits assumed): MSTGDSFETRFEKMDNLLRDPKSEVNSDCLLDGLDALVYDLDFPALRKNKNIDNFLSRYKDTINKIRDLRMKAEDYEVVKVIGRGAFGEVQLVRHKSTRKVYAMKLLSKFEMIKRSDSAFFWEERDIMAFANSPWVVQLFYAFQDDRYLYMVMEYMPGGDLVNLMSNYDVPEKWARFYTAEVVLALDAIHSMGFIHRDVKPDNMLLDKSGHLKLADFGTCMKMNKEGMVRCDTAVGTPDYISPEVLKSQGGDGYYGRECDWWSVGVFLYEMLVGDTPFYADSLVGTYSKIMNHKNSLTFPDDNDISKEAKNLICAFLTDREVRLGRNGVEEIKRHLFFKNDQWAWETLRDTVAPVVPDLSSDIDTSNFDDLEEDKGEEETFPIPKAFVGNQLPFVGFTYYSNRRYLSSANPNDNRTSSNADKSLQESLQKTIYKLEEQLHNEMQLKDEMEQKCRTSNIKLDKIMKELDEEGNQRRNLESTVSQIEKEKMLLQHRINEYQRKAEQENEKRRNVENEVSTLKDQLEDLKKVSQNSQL

Compound | IC50 (ROCK1) [µM] | IC50 (ROCK2) [µM]
Cc1cc(C(=O)N2CC(F)(F)C2)n(C)c1C#Cc1ncc(F)c(Nc2cc(F)c(-c3cn[nH]c3)c(F)c2)n1 [Compound A40] | > 100 | 0.0172
CN1Cc2nc(C#Cc3ccc(C(=O)N4CC(F)(F)C4)n3C)nc(Nc3ccc(-c4cn[nH]c4)cc3)c2C1 [Compound A11] | > 100 | 0.0867
O=C1c2ccc(C#Cc3ncc(F)c(Nc4ccc(-c5cn[nH]c5)cc4)n3)n2CCN1CC(F)(F)F [Compound A38] | > 100 | 0.445
Cc1cc(C(=O)N2CC(F)(F)C2)n(C)c1C#Cc1ncc(F)c(Nc2cc(F)c(-c3cn[nH]c3)cc2F)n1 [Compound A49] | 37.4 | 0.0177
Cc1cc(C(=O)N2CC(F)(F)C2)n(C)c1C#Cc1nc(C)c(F)c(Nc2ccc(-c3cn[nH]c3)c(F)c2)n1 [Compound A45] | 8.8 | 0.0352
COC1CN(C(=O)c2cc(C)c(C#Cc3ncc(F)c(Nc4cc(F)c(-c5cn[nH]c5)cc4F)n3)n2C)C1 [Compound A57] | > 100 | 0.0324
Cn1cc(C#Cc2nccc(Nc3ccc(-c4cn[nH]c4)cc3)n2)cc1C(=O)N1CC(F)(F)C1 [Compound A18] | 53.8 | 2.35
Cc1cc(C(=O)N2CC(F)(F)C2)n(C)c1C#Cc1ncc(F)c(Nc2ccc(-c3cn[nH]c3C)cc2)n1 [Compound A44] | > 100 | 0.0127
Cc1cc(C(=O)N2CC(F)(F)C2)n(C)c1C#Cc1ncc(F)c(Nc2ccc(-c3cn[nH]c3)c(F)c2)n1 [Compound A42] | 4.93 | 0.005
O=C(c1ccc(C#Cc2nccc(Nc3ccc(-c4cn[nH]c4)cc3)n2)s1)N1CC(F)(F)C1 [Compound A19] | > 100 | 50.5
Cn1c(C#Cc2ncnc(Nc3ccc(-c4cn[nH]c4)cc3)n2)ccc1C(=O)N1CC(F)(F)C1 [Compound A9] | > 100 | 0.702
CCn1c(C#Cc2nccc(Nc3ccc(-c4cn[nH]c4)cc3)n2)ccc1C(=O)N1CC(F)(F)C1 [Compound A32] | 30.7 | 0.232
Cc1cc(C(=O)N2CC(F)(F)C2)n(C)c1C#Cc1nc2c(c(Nc3cc(F)c(-c4cn[nH]c4)c(F)c3)n1)COC2 [Compound A50] | 0.073 | 0.0089
Cc1cnc(C#Cc2ccc(C(=O)N3CC(F)(F)C3)n2C)nc1Nc1ccc(-c2cn[nH]c2)cc1 [Compound A4] | 80 | 0.186
Cc1n[nH]c(C)c1-c1ccc(Nc2ccnc(C#Cc3ccc(C(=O)N4CC(F)(F)C4)n3C)n2)cc1 [Compound A14] | > 100 | 0.585
Cc1cc(C(=O)N2CC(F)(F)C2)n(C)c1C#Cc1ncc(F)c(Nc2ccc(-c3cn[nH]c3C)cc2F)n1 [Compound A51] | > 100 | 0.131
Cc1cc(C(=O)N2CC(F)(F)C2)n(C)c1C#Cc1ncc(F)c(Nc2cc(F)c(-c3cn[nH]c3C)c(F)c2)n1 [Compound A43] | 20.6 | 0.0515
Cn1c(C#Cc2ncc(C#N)c(Nc3ccc(-c4cn[nH]c4)cc3)n2)ccc1C(=O)N1CC(F)(F)C1 [Compound A8] | > 100 | 3.49
O=C(c1ccc(C#Cc2nccc(Nc3ccc(-c4cn[nH]c4)cc3)n2)n1C1CC1)N1CC(F)(F)C1 [Compound A30] | 41.9 | 0.118
O=C(c1cccc(C#Cc2nccc(Nc3ccc(-c4cn[nH]c4)cc3)n2)c1)N1CC(F)(F)C1 [Compound A29] | 57.1 | 2
Cc1cc(Nc2ccnc(C#Cc3ccc(C(=O)N4CC(F)(F)C4)n3C)n2)ccc1-c1cn[nH]c1 [Compound A12] | 32.3 | 0.199
Cc1cc(C(=O)N2CC(F)(F)C2)n(C)c1C#Cc1ncc(F)c(Nc2cnc(-c3cn[nH]c3)c(F)c2)n1 [Compound A41] | > 100 | 0.0724
Cc1cc(C(=O)N2CC(F)(F)C2)n(C)c1C#Cc1ncc(F)c(Nc2cnc(-c3cn[nH]c3C)cc2F)n1 [Compound A48] | 18.4 | 0.0377
O=C(c1cccc(C#Cc2ncc(F)c(Nc3cc(F)c(-c4cn[nH]c4)cc3F)n2)n1)N1CC(F)(F)C1 [Compound A46] | > 100 | 0.161
Cc1cc(Nc2ccc(-c3cn[nH]c3)cc2)nc(C#Cc2ccc(C(=O)N3CC(F)(F)C3)n2C)n1 [Compound A5] | > 100 | 0.091
O=C(c1ccc(C#Cc2nccc(Nc3ccc(-c4cn[nH]c4)cc3)n2)nc1)N1CC(F)(F)C1 [Compound A21] | > 100 | 0.754
Cn1c(C#Cc2ncc(F)c(Nc3ccc(-c4cn[nH]c4)cc3)n2)ccc1C(=O)N1CC(F)(F)C1 [Compound A7] | > 100 | 0.0544

Now from value to compound:

IC50 (ROCK1) [µM] | IC50 (ROCK2) [µM] | Compound
> 100 | 0.206 | O=C(c1cccc(C#Cc2nccc(Nc3ccc(-c4cn[nH]c4)cc3)n2)n1)N1CC(F)(F)C1 [Compound A20]
> 100 | 0.421 | Cn1c(C#Cc2ncc(F)c(Nc3ccc(-c4c[nH]nc4F)cc3)n2)ccc1C(=O)N1CC(F)(F)C1 [Compound A15]
> 100 | 0.0573 | CC(C)c1cc(C(=O)N2CC(F)(F)C2)n(C)c1C#Cc1ncc(F)c(Nc2cc(F)c(-c3cn[nH]c3)cc2F)n1 [Compound A55]
> 100 | 1.1 | O=C(c1ccc(C#Cc2nccc(Nc3ccc(-c4cn[nH]c4)cc3)n2)cc1)N1CC(F)(F)C1 [Compound A28]
50.3 | 1.06 | Cn1nc(C#Cc2nccc(Nc3ccc(-c4cn[nH]c4)cc3)n2)cc1C(=O)N1CC(F)(F)C1 [Compound A17]
> 100 | 0.274 | Cn1c(C#Cc2ncc(F)c(Nc3ccc4c(=O)[nH]ccc4c3)n2)ccc1C(=O)N1CC(F)(F)C1 [Compound A27]
> 100 | 0.0778 | Cn1c(C#Cc2nc3c(c(Nc4ccc(-c5cn[nH]c5)cc4)n2)COC3)ccc1C(=O)N1CC(F)(F)C1 [Compound A10]
29.6 | 0.0349 | Cc1[nH]ncc1-c1ccc(Nc2nc(C#Cc3ccc(C(=O)N4CC(F)(F)C4)n3C)ncc2F)cc1 [Compound A16]
> 100 | 0.42 | Cn1c(C#Cc2nc(Nc3ccc(-c4cn[nH]c4)cc3)c3ccccc3n2)ccc1C(=O)N1CC(F)(F)C1 [Compound A37]
64 | 0.0192 | Cn1c(C(=O)N2CC(F)(F)C2)cc(C2CC2)c1C#Cc1ncc(F)c(Nc2cc(F)c(-c3cn[nH]c3)cc2F)n1 [Compound A54]
35.2 | 0.202 | Cc1nc(C#Cc2ccc(C(=O)N3CC(F)(F)C3)n2C)nc(Nc2ccc(-c3cn[nH]c3)cc2)c1C [Compound A6]
40.9 | 3.59 | Cc1c(Nc2ccnc(C#Cc3ccc(C(=O)N4CC(F)(F)C4)n3C)n2)ccc2[nH]ncc12 [Compound A22]
3.9 | 0.303 | Cn1c(C#Cc2nccc(Nc3ccc4[nH]ncc4c3)n2)ccc1C(=O)N1CC(F)(F)C1 [Compound A2]
> 100 | 0.0193 | Cc1cc(C(=O)N2CC(O)C2)n(C)c1C#Cc1ncc(F)c(Nc2cc(F)c(-c3cn[nH]c3)cc2F)n1 [Compound A56]
> 100 | 0.476 | Cc1cc(C(=O)N2CC(F)(F)C2)n(C)c1C#Cc1ncc(F)c(Nc2cc(F)c(-c3cn[nH]c3C)cc2F)n1 [Compound A47]
